Experiments:
Experiment in all cases: Cell growth assay
Type in all cases: cell-based
A673 = conditions: Homo sapiens, 72 h; A673, BRAF(V600E), RAS WT, 3-day; read-out: gIC50
Summary of the method: (§1)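 Growth was quantified by CellTiter-Glo luminescent ATP read-out, taken at t = 0 and again at 72 h. Growth-inhibition IC50 (gIC50) values were derived from these readings.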

BC-1 = conditions: Homo sapiens, BC1, 72 h; BC-1, RAF WT, RAS WT, 3-day; read-out: gIC50
Summary of the method: as §1

C33A = conditions: Homo sapiens, C-33-A, 72 h, RAF WT, RAS WT, 3-day, read-out: gIC50
Summary of the method: as §1

C3A = conditions: Homo sapiens, 72 h, RAF WT, RAS WT, 3-day, read-out: gIC50
Summary of the method: as §1

CAL-62 = conditions: Homo sapiens, 72 h; CAL-62, RAF WT, RAS WT, 3-day; read-out: gIC50
Summary of the method: as §1

EB-3 = conditions: Homo sapiens, 72 h; EB-3, RAF WT, RAS WT, 3-day; read-out: gIC50
Summary of the method: as §1

GCT = conditions: Homo sapiens, 72 h, BRAF(V600E), RAS WT, 3-day, read-out: gIC50
Summary of the method: as §1

H4 = conditions: Homo sapiens, 72 h; H4, RAF WT, RAS WT, 3-day; read-out: gIC50
Summary of the method: as §1

HT-29 = conditions: Homo sapiens, 72 h; HT-29, BRAF(V600E), RAS WT, 3-day; read-out: gIC50
Summary of the method: as §1

HuNS-1 = conditions: Homo sapiens, HuNS1, 72 h; HuNS-1, RAF WT, RAS WT, 3-day; read-out: gIC50
Summary of the method: as §1

J82 = conditions: Homo sapiens, 72 h; J82, RAF WT, RAS WT, 3-day; read-out: gIC50
Summary of the method: as §1

KM-12 = conditions: Homo sapiens, KM12, 72 h; KM-12, RAF WT, RAS WT, 3-day; read-out: gIC50
Summary of the method: as §1

Kato III = conditions: Homo sapiens, 72 h, RAF WT, RAS WT, 3-day, read-out: gIC50
Summary of the method: as §1

LS-174T = conditions: Homo sapiens, LS174T, 72 h, RAF WT, KRAS(G12D), 3-day, read-out: gIC50
Summary of the method: as §1

Molt-4 = conditions: Homo sapiens, 72 h; Molt-4, RAF WT, RAS WT, 3-day; read-out: gIC50
Summary of the method: as §1

NCI-H2122 = conditions: Homo sapiens, 72 h; NCI-H2122, RAF WT, RAS WT, 3-day; read-out: gIC50
Summary of the method: as §1

NCI-H460 = conditions: Homo sapiens, 72 h; NCI-H460, RAF WT, KRAS(Q61H), 3-day; read-out: gIC50
Summary of the method: as §1

NCI-H520 = conditions: Homo sapiens, 72 h; NCI-H520, RAF WT, RAS WT, 3-day; read-out: gIC50
Summary of the method: as §1

NCI-H82 = conditions: Homo sapiens, 72 h; NCI-H82, RAF WT, RAS WT, 3-day; read-out: gIC50
Summary of the method: as §1

RKO = conditions: Homo sapiens, 72 h, BRAF(V600E), RAS WT, 3-day, read-out: gIC50
Summary of the method: as §1

RPMI-8226 = conditions: Homo sapiens, 72 h; RPMI-8226, RAF WT, RAS WT, 3-day; read-out: gIC50
Summary of the method: as §1

SCC-15 = conditions: Homo sapiens, 72 h; SCC-15, RAF WT, RAS WT, 3-day; read-out: gIC50
Summary of the method: as §1

SHP-77 = conditions: Homo sapiens, SHP77, 72 h; SHP-77, RAF WT, KRAS(G12V), 3-day; read-out: gIC50
Summary of the method: as §1

SJRH30 = conditions: Homo sapiens, 72 h; SJRH30, RAF WT, RAS WT, 3-day; read-out: gIC50
Summary of the method: as §1

SK-BR-3 = conditions: Homo sapiens, 72 h; SK-BR-3, RAF WT, RAS WT, 3-day; read-out: gIC50
Summary of the method: as §1

SK-MEL-3 = conditions: Homo sapiens, SK-MEL3, 72 h; SK-MEL-3, BRAF(V600E), RAS WT, 3-day; read-out: gIC50
Summary of the method: as §1

SK-MES-1 = conditions: Homo sapiens, 72 h; SK-MES-1, RAF WT, RAS WT, 3-day; read-out: gIC50
Summary of the method: as §1

SW756 = conditions: Homo sapiens, 72 h; SW756, RAF WT, KRAS(G12C), 3-day; read-out: gIC50
Summary of the method: as §1

SW900 = conditions: Homo sapiens, 72 h; SW900, RAF WT, RAS WT, 3-day; read-out: gIC50
Summary of the method: as §1

T47D = conditions: Homo sapiens, 72 h, RAF WT, RAS WT, 3-day, read-out: gIC50
Summary of the method: as §1

U2OS = conditions: Homo sapiens, 72 h, RAF WT, RAS WT, 3-day, read-out: gIC50
Summary of the method: as §1

ZR-75-1 = conditions: Homo sapiens, 72 h; ZR-75-1, RAF WT, RAS WT, 3-day; read-out: gIC50
Summary of the method: as §1

CC(C)(C)c1nc(-c2cccc(NS(=O)(=O)c3c(F)cccc3F)c2F)c(-c2ccnc(N)n2)s1 [dabrafenib]
IC50 (A673): > 10 µM | IC50 (BC-1): 0.704 µM | IC50 (C33A): > 10 µM | IC50 (C3A): 5.41 µM | IC50 (CAL-62): > 10 µM | IC50 (EB-3): > 10 µM | IC50 (GCT): > 10 µM | IC50 (H4): 0.619 µM | IC50 (HT-29): 0.066 µM | IC50 (HuNS-1): > 10 µM | IC50 (J82): > 10 µM | IC50 (KM-12): > 10 µM | IC50 (Kato III): > 10 µM | IC50 (LS-174T): > 10 µM | IC50 (Molt-4): > 10 µM | IC50 (NCI-H2122): > 10 µM | IC50 (NCI-H460): > 10 µM | IC50 (NCI-H520): > 10 µM | IC50 (NCI-H82): > 10 µM | IC50 (RKO): 2.52 µM | IC50 (RPMI-8226): 0.263 µM | IC50 (SCC-15): > 10 µM | IC50 (SHP-77): > 10 µM | IC50 (SJRH30): > 10 µM | IC50 (SK-BR-3): > 10 µM | IC50 (SK-MEL-3): 0.007 µM | IC50 (SK-MES-1): 0.329 µM | IC50 (SW756): > 10 µM | IC50 (SW900): > 10 µM | IC50 (T47D): > 10 µM | IC50 (U2OS): > 10 µM | IC50 (ZR-75-1): > 10 µM

Reference: publication PMC3701070 (PLoS ONE, 2013)
